Among the data in patent US20240383908A1, “SYNTHESIS AND APPLICATION OF PHOSPHATASE DEGRADER” (HINOVA PHARMACEUTICALS INC., priority 2021, published 2024) are DC50 values, retold here.

Common to all, as to assay type: cell-based
Assay [1] concerns the target T1, SHP2 protein (Homo sapiens, UniProt Q06124).
T1 sequence (Q06124 1-593): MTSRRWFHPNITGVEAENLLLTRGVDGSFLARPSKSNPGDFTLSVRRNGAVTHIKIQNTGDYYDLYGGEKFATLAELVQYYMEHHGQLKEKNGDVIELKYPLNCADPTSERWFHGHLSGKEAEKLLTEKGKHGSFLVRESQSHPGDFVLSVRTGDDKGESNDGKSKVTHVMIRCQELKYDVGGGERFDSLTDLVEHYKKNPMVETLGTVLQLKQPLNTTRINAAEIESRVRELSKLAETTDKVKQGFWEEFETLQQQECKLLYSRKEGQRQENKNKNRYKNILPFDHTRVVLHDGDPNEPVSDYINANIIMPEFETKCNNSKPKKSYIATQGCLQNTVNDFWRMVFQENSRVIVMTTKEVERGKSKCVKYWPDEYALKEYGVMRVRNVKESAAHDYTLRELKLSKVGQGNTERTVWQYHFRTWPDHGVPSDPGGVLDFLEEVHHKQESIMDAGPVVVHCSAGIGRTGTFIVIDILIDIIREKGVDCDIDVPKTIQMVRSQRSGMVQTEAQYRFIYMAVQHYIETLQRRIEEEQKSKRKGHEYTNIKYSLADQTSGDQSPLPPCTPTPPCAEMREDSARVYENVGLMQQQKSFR
The assay can be described thus: Degradation activity on SHP2 protein in MIA Paca-2 cells (Western blot, DC50). Particulars: read-out: Degradation activity for differenct cell lines MIA Paca-2 (DC50). On the set-up: endogenous in cells; host or cells: MIA Paca-2 cells. The procedure, abridged:
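DC50 is the concentration degrading 50% of SHP2 relative to DMSO control. It was derived by fitting Western blot band densitometry (anti-SHP2, GAPDH reference) from cells exposed 24 h to 0.1–100 nM compound in 0.1% DMSO.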
(In western blotting, separated proteins are transferred to a membrane and probed.)

Assay [2] addresses T1, SHP2 protein. The assay can be described thus: Degradation activity on SHP2 protein in NCI-H358 cells (Western blot, DC50). On the set-up: endogenous in cells. Particulars: read-out: Degradation activity for differenct cell lines NCI-H358 (DC50). The procedure:
(1) MV-411 cells were cultured in the cell culture medium, and then well-growing cells were selected and inoculated in a 12-well plate, with 1 mL/well and 1×10^6 cells/well. The plate was incubated overnight in a 5% CO2 cell incubator at 37° C.
(2) 10 mM storage solution of each drug was prepared using dimethylsulfoxide (DMSO). The stock solution was diluted gradually with DMSO before use, and then 1 μL of the compound solution was added to the cell culture well (to ensure that the DMSO concentration in the culture system was […]), so that the final drug concentration is 100 nM, 10 nM, 3 nM, 1 nM, 0.3 nM, and 0.1 nM. Two wells were set for each concentration. The plate was gently shaken and mixed. Additionally, negative control wells (containing an equal amount of DMSO) and positive control wells were included.
(3) After 24 hours of cultivation, the cells were lysed using RIPA cell lysate, and the proteins were extracted. The protein concentration was measured using a BCA assay kit. 5× concentrated protein buffer was loaded, heated at 100° C. for 5 min, and then the sample was stored at −20° C.
(4) For each well, 30 μg of protein was loaded to polyacrylamide gel for electrophoresis.
(5) The protein was transferred from polyacrylamide gel to PVDF membrane, and sealed at room temperature with 5% skimmed milk for 1 h, which was then incubated with the primary antibodies (Anti-SHP2 rabbit mAb and Anti-GAPDH rabbit mAb) at 4° C. overnight. The membrane was washed three times with TBST solution, 10 minutes for each time. After that, the membrane was incubated with the secondary antibodies (horseradish peroxidase labeled goat anti-rabbit IgG) at room temperature for 2 h, and then washed three times with TBST solution, 10 minutes for each time, followed by exposure.
(6) The images were analyzed with Image J grayscale, and the degradation ratio of protein bands in the test group was calculated, based on the negative control group (DMSO) (100%).
(7) Using the Dose-response-inhibition equation in the data processing software GraphPad Prism 8, the DC50 value was obtained (which represents the drug concentration corresponding to 50% degradation of the target protein).
Using similar methods and different cell lines, the degradation activity of the compound according to the present invention on SHP2 protein of different cell lines was tested under suitable culture conditions.

Assay [3] concerns the target T1, SHP2 protein. The assay can be described thus: Degradation activity on SHP2 protein in MV-411 cells (Western blot, DC50). Details: endogenous in cells. Particulars: MV411 cells, 24 hours, read-out: Degradation activity for differenct cell lines MV411 (DC50). In short, it runs like this: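 Western blot of SHP2 (GAPDH loading control, 30 μg protein/lane) in lysates of MV-411 cells exposed 24 h to final compound concentrations of 100, 10, 3, 1, 0.3 and 0.1 nM (0.1% DMSO). Degradation relative to DMSO set at 100%; DC50 derived by curve fitting.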

Where only a bound is given, the exact number is not on record here.

For orientation: DC50 means the concentration at which degradation of the target reaches its halfway point.

Regarding `CC1(N)CCN(c2cnc(Sc3cccc(NC(=O)CCCCCCCCN4C5CCC4CC(c4ccc(C(=O)NCc6ccc7c(c6)CN(C6CCC(=O)NC6=O)C7=O)nn4)C5)c3)cn2)CC1` (single isomer, unassigned) [Compound 232], the DC50 in assay [1] and in assay [2] was less than 100 nM in each case.

Regarding `CC1(N)CCN(c2cnc(Sc3cccc(NC(=O)CCCCCCCCN4C5CCC4CC(c4ccc(C(=O)NCc6ccc7c(c6)CN(C6CCC(=O)NC6=O)C7=O)nn4)C5)c3)cn2)CC1` (single isomer, unassigned) [Compound 233], the DC50 in assay [2] was less than 100 nM.

With `CC1(N)CCN(c2cnc(Sc3cccc(NC(=O)CCCCCCCCN4C5CCC4CC(c4ccc(C(=O)NCc6ccc7c(c6)CN(C6CCC(=O)NC6=O)C7=O)nn4)C5)c3)cn2)CC1` (single isomer, unassigned) [Compound 234], the half-maximal degradation concentration (DC50) in assay [2] was less than 100 nM.

`CC1(N)CCN(c2cnc(Sc3cccc(NC(=O)CCCCCCCOC4CCN(c5ccc(C(=O)NCc6ccc7c(c6)CN(C6CCC(=O)NC6=O)C7=O)nn5)CC4F)c3)cn2)CC1` (stereo not shown) [Compound 147]: the 50% degradation concentration (DC50) in assay [2] was less than 100 nM.

As to `CC1(N)CCN(c2cnc(Sc3cccc(NC(=O)CCCCCCCO[C@@H]4CN(c5ccc(C(=O)NCc6ccc7c(c6)CN(C6CCC(=O)NC6=O)C7=O)nn5)CC4(F)F)c3)cn2)CC1` (stereo partly shown) [Compound 178], the DC50 in assay [3] and in assay [1] was less than 100 nM each time.

Consider `CC1(N)CCN(c2cnc(Sc3cccc(NC(=O)CCCCCCN4CC5(CCN(c6cnc(C(=O)NCc7ccc8c(c7)CN(C7CCC(=O)NC7=O)C8=O)cn6)C5)C4)c3)cn2)CC1` (stereo not shown) [Compound 179], for which the 50% degradation concentration (DC50) in assay [3] was less than 100 nM; in assay [1] it was greater than 1000 nM.

Consider `CC1(N)CCN(c2cnc(Sc3cccc(NC(=O)CCCCCCOC4CC5CN(c6ccc(C(=O)NCc7ccc8c(c7)CN(C7CCC(=O)NC7=O)C8=O)nn6)CC5C4)c3)cn2)CC1` (stereo not shown) [Compound 183], for which the DC50 was less than 100 nM in assay [3] and greater than 1000 nM in assay [1].

With `CC1(N)CCN(c2cnc(Sc3cccc(NC(=O)CCCCCCCCCCNc4ccc(C(=O)NCc5ccc6c(c5)CN(C5CCC(=O)NC5=O)C6=O)nn4)c3)cn2)CC1` (stereo not shown) [Compound 185], the DC50 in assay [3] is less than 100 nM; in assay [1] it was 100 to 1000 nM.

Regarding `CC1(N)CCN(c2cnc(Sc3cccc(NC(=O)CCCCCOc4ccc(C5CC5C(=O)NCc5ccc6c(c5)C(=O)N(C5CCC(=O)NC5=O)C6)cc4)c3)cn2)CC1` (stereo not shown) [Compound 189, 2-(4-((6-((3-((5-(4-amino-4-methylpyridin-1-yl)pyrazin-2-yl)thio)phenyl)amino)-6-oxohexyl)oxy)phenyl)-N-((2-(2,6-dioxopiperidin-3-yl)-3-oxoisoindol-5-yl)methyl)cyclopropane-1-formamide], the values for the DC50 in assay [3] and in assay [1] were less than 100 nM and greater than 1000 nM, respectively.

In the case of `NC1(CO)CCN(c2cnc(Sc3cccc(NC(=O)CCCCCCN4CC5(CCN(c6ccc(C(=O)NCc7ccc8c(c7)CN(C7CCC(=O)NC7=O)C8=O)nc6)C5)C4)c3)cn2)CC1` (stereo not shown) [Compound 190], the results for the 50% degradation concentration (DC50) in assay [3] and in assay [1] were 100 to 1000 nM and greater than 1000 nM, respectively.

As to `CC1(N)CCN(c2cnc(Sc3cccc(NC(=O)CCCCCOc4ccc(C5CCC(C(=O)NCc6ccc7c(c6)CN(C6CCC(=O)NC6=O)C7=O)CC5)cc4)c3)cn2)CC1` (stereo not shown) [Compound 191], the figures for the 50% degradation concentration (DC50) in assay [3] and in assay [1] were less than 100 nM and greater than 1000 nM, respectively.

Regarding `CC1(N)CCN(c2cnc(Sc3cccc(NC(=O)CCCCCOc4ccc(C5CCC(C(=O)NCc6ccc7c(c6)CN(C6CCC(=O)NC6=O)C7=O)CC5)cc4)c3)cn2)CC1` (stereo not shown) [Compound 192], the DC50 in assay [3] is less than 100 nM; in assay [1] it was greater than 1000 nM.

For `COCC1(N)CCN(c2cnc(Sc3cccc(NC(=O)CCCCCCN4CC5(CCN(c6ccc(C(=O)NCc7ccc8c(c7)CN(C7CCC(=O)NC7=O)C8=O)nn6)C5)C4)c3)cn2)CC1` (stereo not shown) [Compound 199], the DC50 in assay [3] and in assay [1] was less than 100 nM in each case.

In the case of `Cc1cc(N2CCC3(CN(CCCCCCC(=O)Nc4cccc(Sc5cnc(N6CCC(N)(CO)CC6)cn5)c4)C3)C2)cnc1C(=O)NCc1ccc2c(c1)CN(C1CCC(=O)NC1=O)C2=O` (stereo not shown) [Compound 208], the 50% degradation concentration (DC50) is less than 100 nM in assay [3] and greater than 1000 nM in assay [1].

`CC1(N)CCN(c2cnc(Sc3cccc(NC(=O)CCCCCC=C4CC5(CCN(c6ccc(C(=O)NCc7ccc8c(c7)CN(C7CCC(=O)NC7=O)C8=O)nn6)CC5)C4)c3)cn2)CC1` (stereo not shown) [Compound 209]: the DC50 in assay [3] is less than 100 nM; in assay [1], greater than 1000 nM.

On to `COc1nc(N2CCC3(CN(CCCCCCC(=O)Nc4cccc(Sc5cnc(N6CCC(C)(N)CC6)cn5)c4)C3)C2)ccc1C(=O)NCc1ccc2c(c1)CN(C1CCC(=O)NC1=O)C2=O` (stereo not shown) [Compound 211], for which the DC50 in assay [3] and in assay [1] was less than 100 nM throughout.

In the case of `CC1(N)CCN(c2cnc(Sc3cccc(NC(=O)CCCCCCN4CC5(CCC(c6ccc(C(=O)NCc7ccc8c(c7)CN(C7CCC(=O)NC7=O)C8=O)nc6)CC5)C4)c3)cn2)CC1` (stereo not shown) [Compound 216], the DC50 in assay [1] and in assay [2] was less than 100 nM each time.

Regarding `CC1(N)CCN(c2cnc(Sc3cccc(NC(=O)CCCCCCN4CC5(CC=C(c6ccc(C(=O)NCc7ccc8c(c7)CN(C7CCC(=O)NC7=O)C8=O)nc6)CC5)C4)c3)cn2)CC1` (stereo not shown) [Compound 217], the half-maximal degradation concentration (DC50) in assay [1] and in assay [2] was less than 100 nM each time.

Regarding `CC1(N)CCN(c2cnc(Sc3cccc(NC(=O)CCCCCCCCN4CCC(c5ccc(C(=O)NCc6ccc7c(c6)CN(C6CCC(=O)NC6=O)C7=O)nn5)CC4)c3)cn2)CC1` (stereo not shown) [Compound 218], the DC50 in assay [1] and in assay [2] was less than 100 nM each time.

Regarding `CC1(N)CCN(c2cnc(Sc3cccc(NC(=O)CCCCCCCCN4C5C=C(c6ccc(C(=O)NCc7ccc8c(c7)CN(C7CCC(=O)NC7=O)C8=O)nn6)CC4CC5)c3)cn2)CC1` (stereo not shown) [Compound 219], the DC50 in assay [1] and in assay [2] was less than 100 nM in each case.

As for `Cc1ncsc1-c1ccc([C@H](C)NC(=O)[C@@H]2C[C@@H](O)CN2C(=O)[C@@H](NC(=O)c2cnc(N3CCN(CCCCCC(=O)Nc4cccc(Sc5cnc(N6CCC(C)(N)CC6)cn5)c4)CC3)nc2)C(C)(C)C)cc1` [Compound 220], the half-maximal degradation concentration (DC50) in assay [1] and in assay [2] was less than 100 nM in each case.

Consider `CC1(N)CCN(c2cnc(Sc3cccc(NC(=O)CCCCCCCCN4CCN(c5ccc(C(=O)NCc6ccc7c(c6)CN(C6CCC(=O)NC6=O)C7=O)nn5)CC4C(F)(F)F)c3)cn2)CC1` (stereo not shown) [Compound 225], for which the half-maximal degradation concentration (DC50) in assay [2] is less than 100 nM.

Take `CC1(N)CCN(c2cnc(Sc3cccc(NC(=O)CCCCCCCCN4CCc5cc(C(=O)NCc6ccc7c(c6)CN(C6CCC(=O)NC6=O)C7=O)cnc5C4)c3)cn2)CC1` (stereo not shown) [Compound 235]: the DC50 in assay [2] is less than 100 nM.

With `CC1(N)CCN(c2cnc(Sc3cccc(NC(=O)CCCCOc4ccc(N5CCN(c6ccc(C(=O)NCc7ccc8c(c7)CN(C7CCC(=O)NC7=O)C8=O)nn6)CC5)cc4)c3)cn2)CC1` (stereo not shown) [Compound 236], in assay [2], the half-maximal degradation concentration (DC50) was less than 100 nM.

With `Cc1ncsc1-c1ccc([C@H](C)NC(=O)[C@@H]2C[C@@H](O)CN2C(=O)[C@@H](NC(=O)c2cnc(N3CC(OCC(=O)Nc4cccc(Sc5cnc(N6CCC(C)(N)CC6)cn5)c4)C3)nc2)C(C)(C)C)cc1` [Compound 240], the 50% degradation concentration (DC50) in assay [2] was greater than 1000 nM.
